According to patent US20180021270A1, “METHODS FOR THE TREATMENT OF CANCER USING COENZYME Q10 IN COMBINATION WITH IMMUNE CHECKPOINT MODULATORS” (Berg LLC, priority 2016, published 2018):

Columns and labels:
[1] = tested on: CD3 positive murine T cells within Balb/c PBMCs; test: Viability of murine CD3 positive T cells within PBMCs; format: cell-based, mouse; details: 0-800 μM, 24 hours, dose-dependent, non-stimulated and PHA-stimulated cells
Protocol: The effects of Coenzyme Q10 on murine immune cells were also evaluated to determine whether Coenzyme Q10 has similar effects as those described above for human immune cells. For example, the viability of murine CD3 positive T cells within PHA-stimulated or unstimulated Balb/c PBMCs was determined. Cells were concurrently treated with Coenzyme Q10 (0, 12.5, 50, 200, 400 or 800 μM) for 24 hours and analyzed by flow cytometry using surface marker antibody for αCD3 and viability stains Annexin V/7AAD. CD3 positive and CD3 negative cell populations were identified within total cell population excluding debris, and viability was determined by plotting Annexin V-FITC vs. 7AAD. Two experiments using two different pools of Balb/c PBMCs and one experiment using C57B1/6 PBMCs were conducted. As shown in FIGS. 21A and 21B, Coenzyme Q10 increased the viability of CD3 positive murine T cells in a dose-dependent manner for both non-stimulated and PHA-stimulated cells.

[2] = tested on: murine Balb/c PBMCs; test: Frequency of PD-1 expressing cells within murine PBMCs; format: cell-based, mouse; details: 0-800 μM, 24 hours, dose dependent, unstimulated and PHA-stimulated cells
Protocol: The frequency of PD-1 expressing cells within PHA-stimulated or unstimulated murine Balb/c PBMCs was also evaluated. Cells were concurrently treated with Coenzyme Q10 (0, 12.5, 50, 200, 400 or 800 μM) for 24 hours and evaluated by flow cytometry using surface marker antibody for αCD3 and viability stains Annexin V/7AAD. Viable cells were identified by plotting Annexin V vs. 7 AAD, and gated viable cells were subjected to CD3 vs. PD-1 staining. Two experiments using two different pools of Balb/c PBMCs and one experiment using C57B1/6 PBMCs were conducted.

[3] = tested on: breast (MDA-MB231), prostate (LnCAP), ovarian (SKOV-3), colon (HT29), lung (A549), liver (Huh-7), and pancreatic (MIA PaCa-2) cancer cells; test: mRNA expression of PD1, PD-L1 and PD-L2 in cancer cells treated with Coenzyme Q10 (other treatment groups); format: cell-based, human; details: 50 μM, 100 μM or IC50 of Coenzyme Q10; all groups other than PD-L1 in HT29 at 50 μM
Protocol: Levels of mRNA expression of the immune checkpoints PD1, PD-L1 and PD-L2 were determined in human breast (MDA-MB231), prostate (LnCAP), ovarian (SKOV-3), colon (HT29), lung (A549), liver (Huh-7), and pancreatic (MIA PaCa-2) cancer cells treated with 50 μM Coenzyme Q10, 100 μM Coenzyme Q10, or the IC50 of Coenzyme Q10 for each cell line.

[4] = tested on: PD-1 on CD3 positive T cells within Balb/c PBMCs; test: PD-1 surface expression on murine CD3 positive T cells; format: cell-based, mouse; details: 0-800 μM, 24 hours, mean fluorescence intensity
Protocol: PD-1 surface expression on CD3 positive T cells within PHA stimulated or unstimulated Balb/c PBMCs was also evaluated. Cells were treated with Coenzyme Q10 (0, 12.5, 50, 200, 400 or 800 μM) for 24 hours and PD-1 expression was determined by gating live CD3 positive T cells. Mean fluorescence intensity values were evaluated in histogram plots for PD-1. Two experiments using two different pools of Balb/c PBMCs and one experiment using C57B1/6 PBMCs were conducted.

[5] = tested on: PD-L1 protein on the surface of lung cancer cells (A549); test: Flow cytometry of PD-L1 protein on the cancer cell surface; format: cell-based, human; details: A549, 72 hours after treatment
Protocol: (§1) Flow cytometry analysis with a fluorescent probe for PD-L1 was used to determine the expression of PD-L1 protein on the surface of various human cancer cell lines. The cells were treated with 100 μM Coenzyme Q10, or the IC50 of Coenzyme Q10 for each cell line. […] The increased PD-L1 levels observed in breast cancer cells in response to Coenzyme Q10 treatment were not due to changes in cell populations.
(§2) Human pancreatic (MIA PaCa-2), ovarian (SKOV-3), and lung (A549) cancer cell lines treated with Coenzyme Q10 were also analyzed by flow cytometry to determine PD-L1 protein expression on the cancer cell surface.

[6] = tested on: PD-L1 protein on the surface of ovarian cancer cells (SKOV-3); test: as above; format: cell-based, human; details: SKOV-3, 72 hours after treatment
Protocol: as §1, §2

[7] = tested on: PD-L1 protein on the surface of pancreatic cancer cells (MIA PaCa-2); test: as above; format: cell-based, human; details: MIA PaCa-2, 72 hours after treatment
Protocol: as §1, §2

[8] = tested on: murine Pan02 pancreatic cancer cells; test: Pan02 pancreatic tumor growth in C57BL/6 mice; format: in vivo, mouse; details: Day 21
Protocol: C57BL/6 mice were implanted with murine Pan02 pancreatic cancer cells and treated with different doses of Coenzyme Q10 to evaluate the effects of Coenzyme Q10 on tumor growth. C57B1/6 female mice were inoculated with 3×10^7 Pan02 cells. When tumors reached a mean volume of 100 mm^3, animals were randomized into four groups and treated with vehicle control or Coenzyme Q10 (25, 50 or 100 mg/kg) by intraperitoneal (i.p.) injection twice daily for 21 days. Tumor volume was measured twice per week.

[9] = tested on: human T cells within PBMCs; test: T cell proliferation by Click-iT EdU flow cytometry; format: cell-based; details: 200 μM Coenzyme Q10, 72 hours, EdU final 18 hours
Protocol: Proliferation of T cells was assessed by flow cytometry using Click-iT® EdU technology (Thermo Fisher Scientific, Waltham, Mass.), a proliferation assay that is optimized for fluorescence microscopy applications. In this assay, the modified thymidine analogue EdU is incorporated into newly synthesized DNA and fluorescently labeled with a bright, photostable Alexa Fluor® dye. PBMCs were obtained from three different human donors. PBMCs were incubated with or without PHA for 72 hours while concurrently treated with Coenzyme Q10 (200 μM). 10 μM of EdU was added for the final 18 hours and stained with Invitrogen Alexa Fluor 488 piclyl azide according to the manufacturer's protocol. Cells were then stained with surface marker antibodies for CD3/CD8, or CD3/CD4 to identify cytotoxic T cells or helper T cells, respectively. Cells were then analyzyed by flow cytometry applying gating strategy.

SMILES: COC1=C(OC)C(=O)C(C/C=C(\C)CC/C=C(\C)CC/C=C(\C)CC/C=C(\C)CC/C=C(\C)CC/C=C(\C)CC/C=C(\C)CC/C=C(\C)CC/C=C(\C)CCC=C(C)C)=C(C)C1=O [Coenzyme Q10]
- Viability of CD3 positive murine T cells [1]: increased
- Frequency of PD-1 negative CD3 positive T cells [2]: increased
- PD1, PD-L1 and PD-L2 mRNA expression, other treatment groups [3]: no significant differences
- PD-1 expression of PD-1 negative gated CD3+ T cells [4]: does not affect
- PD-1 levels on PD-1 high expressing gated CD3+ T cells [4]: increased
- Amount of PD-L1 on the cell surface [5]: did not significantly change
- Percentage of cells having PD-L1 protein on their surface [5]: did not significantly change
- Amount of PD-L1 protein on the cell surface [6]: small but significant increase
- Percentage of cells having PD-L1 protein on their surface [6]: did not significantly change
- Amount of PD-L1 protein on the cell surface [7]: significantly increased
- Percentage of cells having PD-L1 protein on their surface [7]: significantly increased
- Percentage of Tumor Growth Inhibition ([8]; 25 mg/kg i.p. twice daily, p=0.2583 to control): 7%
- Percentage of Tumor Growth Inhibition ([8]; 50 mg/kg i.p. twice daily, p=0.1255 to control): 19%
- Percentage of Tumor Growth Inhibition ([8]; 100 mg/kg i.p. twice daily, p=0.0529 to control): 26%
- Proliferation of PHA-activated cytotoxic T cells [9]: increased
